What was measured:
Mu-type opioid receptor [1] = molecular target: T1, Mu-type opioid receptor (Cavia porcellus, UniProt P97266); assay: Agonist activity was assessed in an guinea pig ileum (GPI) smooth muscle bioassay
Mu-type opioid receptor [2] = molecular target: T1, Mu-type opioid receptor; assay: Binding affinity against mu opioid receptor using [3H]DAMGO in guinea pig ileum

T1 sequence (P97266 whole entry): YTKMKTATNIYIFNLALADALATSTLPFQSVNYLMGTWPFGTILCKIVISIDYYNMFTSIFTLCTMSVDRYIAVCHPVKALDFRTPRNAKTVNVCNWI

## CN1C(=O)[C@H](CS)N(C(=O)[C@@H](N)Cc2ccc(O)cc2)C(=O)[C@@H](C(C)(C)S)NC(=O)[C@@H]1Cc1ccccc1 [4-[2-Amino-3-(4-hydroxy-phenyl)-propionyl]-9-benzyl-3-mercaptomethyl-6-(1-mercapto-1-methyl-ethyl)-1-methyl-[1,4,7]triazonane-2,5,8-trione]
Mu-type opioid receptor [1]
  IC50: > 30 µM
Mu-type opioid receptor [2]
  Ki: > 10 µM

Reference: BindingDB's records for doi:10.1021/jm00051a016 (University of Michigan, 1995)
